The results in this text go back to BindingDB's records for doi:10.1016/j.bmcl.2005.02.039 (National Institute of Pharmaceutical Education and Research …, 2005).

This test is described as follows: Anti-oxidant activity in DPPH radicak scavenging assay; n=3-4.
Turning to `Oc1ccc(/C=C/c2cc(/C=C/c3ccc(O)cc3)[nH]n2)cc1` [4-((E)-2-{3-[(E)-2-(4-hydroxyphenyl)vinyl]-1H-pyrazol-5-yl}vinyl)phenol], inhibition was half-maximal at 32.4 µM (IC50).
Then `COc1cc(/C=C/c2cc(/C=C/c3ccc(O)cc3)on2)ccc1O` [4-((E)-2-{5-[(E)-2-(4-Hydroxy-phenyl)-vinyl]-isoxazol-3-yl}-vinyl)-2-methoxy-phenol], with 19 µM; and `COc1cc(C=Cc2cc(C=Cc3ccc(O)cc3)n[nH]2)ccc1O` [4-((E)-2-{5-[(E)-2-(4-Hydroxy-phenyl)-vinyl]-1H-pyrazol-3-yl}-vinyl)-2-methoxy-phenol], with 15.5 µM.

As a reminder, the IC50 is the midpoint of a concentration-inhibition curve.
